# From paper PMC12818745 (ACS Chemical Neuroscience, 2025)
# Where two headings read alike, the source gives them in different places.
# Tests used:
# [1] = biological target: eeAChE (Electrophorus electricus AChE) (Electrophorus electricus, UniProt O42275); assay: Cholinesterase inhibition assay (modified Ellman's method), eeAChE; format: biochemical; conditions: for SI eeAChE: ratio eqBChE IC50/eeAChE IC50
# From the text: (§1) Compound series A and B were initially screened for their cholinesterase activity against eeAChE (Electrophorus electricus AChE) and eqBChE (equine serum butyrylcholinesterase), using an adaptation of the Ellman’s method. […]. […] Similarly, replacing the terminal triple bond in 7l with a nitrile group reduced its activity, while replacing the O-propargyl group with an N,N-dipropargyl group in 10 enhanced the inhibition of both enzymes, particularly BChE (Table ). The installation of an additional aryl ring in 7o further improved AChE inhibition, slightly increasing selectivity toward this enzyme. […]. […]. […]. The inhibitory activity of the synthesized compounds toward eeAChE and eqBChE was evaluated spectrophotometrically through a 96-well microplate modified Ellman’s method. The solutions of both enzymes were prepared as 0.025 U/mL in phosphate buffer at pH 7, from stock solutions of 5.05 U/mL and 7.50 U/mL, respectively. The stock solutions for the target compounds (0.1 M) were prepared in dimethyl sulfoxide (DMSO). […] The reaction mixture was prepared with 100 μL of the enzyme (eeAChE or eqBChE) and 50 μL of the test compound (or DMSO/water, not exceeding 0.2% of DMSO in the wells; i.e blank samples). After 5 min of the preincubation period at 37 °C, 50 μL of ATChI or BTChI and 50 μL of DTNB were added to each well, thus initiating the enzymatic reaction. The absorbance values were measured at 415 nm, for a total of 7.5 min, at every 2.5 min, using a microplate reader (Synergy multimode reader; BioTek). […]. All experiments were performed in triplicate.
# in vitro = conditions: for Prediction (penetration into the CNS): class from PAMPA-BBB P e; for Papp at 2.5 h: pig, PAMPA, pH 7.4
# Procedure: To assess BBB permeability, a parallel artificial membrane permeability assay (PAMPA)-BBB was performed, which predicts passive BBB permeability using a brain lipid porcine membrane.
# The prediction of the brain penetration was evaluated using a PAMPA-BBB. […] Next, 100 μL of these stock solutions were added to a solution of 1400 μL of EtOH and 3500 μL of PBS at pH 7.4, to reach 30% of EtOH concentration in the experiment. These solutions were filtered, using Filter PDVF membrane units (diameter 30 mm, pore size 0.45 μm, from Symta). After this, the acceptor 96-well microplate (Multiscreen, catalogue no. MAMCS9610, from Millipore) was filled with 180 μL of PBS/EtOH (70/30). […] After 5 min, 180 μL of each compound solution was added. 1–2 mg of each selected compound was dissolved in 1500 μL of EtOH and 3500 μL of PBS at pH 7.4, filtered, and then added to the donor 96-well plate to determine their ability to cross the brain barrier. After this, the donor plate was carefully put on the acceptor plate to form a “sandwich” and incubated for 2.5 h at 25 °C. During this period, the compounds diffused from the donor plate through the brain lipid membrane into the acceptor plate. Afterward, the donor plate was removed. A 96-well plate UV reader (Thermoscientific, Multiskan spectrum) was used to determine the concentration of compounds and commercial drugs in the acceptor and donor wells. Every sample was analyzed at three to five wavelengths, in three wells, and in two independent runs. […] Ten quality control compounds (previously mentioned) of known BBB permeability were included in each experiment to validate the analysis set.
# P-glycoprotein (P-gp) = biological target: T1, P-glycoprotein (P-gp) (Homo sapiens, UniProt P08183); assay: Calcein-AM-assay in hMEC/D3 cells; format: cell-based; conditions: 1, 10, 50 and 100 μM
# T1 construct: endogenous in cells; host or cells: hMEC/D3 cells
# T1 sequence (P08183 whole entry): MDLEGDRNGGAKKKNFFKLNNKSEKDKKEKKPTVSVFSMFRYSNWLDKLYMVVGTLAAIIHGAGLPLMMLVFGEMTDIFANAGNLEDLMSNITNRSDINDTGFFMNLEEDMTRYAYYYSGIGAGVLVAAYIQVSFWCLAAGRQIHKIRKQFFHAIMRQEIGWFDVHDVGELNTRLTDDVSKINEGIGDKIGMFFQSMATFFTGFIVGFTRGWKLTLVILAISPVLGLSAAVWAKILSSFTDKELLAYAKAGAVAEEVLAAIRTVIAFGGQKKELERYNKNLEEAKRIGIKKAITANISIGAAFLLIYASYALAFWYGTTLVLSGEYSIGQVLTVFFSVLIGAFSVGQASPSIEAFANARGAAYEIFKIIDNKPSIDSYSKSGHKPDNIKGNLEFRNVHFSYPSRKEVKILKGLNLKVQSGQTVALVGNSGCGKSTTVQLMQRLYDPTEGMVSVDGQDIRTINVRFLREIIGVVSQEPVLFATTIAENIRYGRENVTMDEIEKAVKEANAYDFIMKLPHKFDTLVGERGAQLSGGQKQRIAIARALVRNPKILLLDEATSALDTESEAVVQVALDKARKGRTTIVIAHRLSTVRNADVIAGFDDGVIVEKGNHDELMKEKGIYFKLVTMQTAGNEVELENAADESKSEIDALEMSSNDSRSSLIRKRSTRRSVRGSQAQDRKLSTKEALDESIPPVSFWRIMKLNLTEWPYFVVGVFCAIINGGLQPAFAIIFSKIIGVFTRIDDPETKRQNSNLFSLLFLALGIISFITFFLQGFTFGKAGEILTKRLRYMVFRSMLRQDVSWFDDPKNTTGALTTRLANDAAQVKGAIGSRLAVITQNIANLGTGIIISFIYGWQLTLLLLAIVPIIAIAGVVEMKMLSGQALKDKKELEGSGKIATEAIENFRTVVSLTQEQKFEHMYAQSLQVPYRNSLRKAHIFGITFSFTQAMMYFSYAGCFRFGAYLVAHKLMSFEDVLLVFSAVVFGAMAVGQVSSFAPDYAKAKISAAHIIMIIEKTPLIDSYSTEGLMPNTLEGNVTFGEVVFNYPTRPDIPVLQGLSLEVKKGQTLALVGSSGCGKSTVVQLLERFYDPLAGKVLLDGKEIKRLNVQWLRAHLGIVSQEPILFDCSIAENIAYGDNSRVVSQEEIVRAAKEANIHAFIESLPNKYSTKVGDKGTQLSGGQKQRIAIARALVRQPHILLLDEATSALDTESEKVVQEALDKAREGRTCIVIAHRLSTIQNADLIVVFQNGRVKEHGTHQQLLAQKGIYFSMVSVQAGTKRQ
# Procedure: To complement this approach and better understand whether these compounds may be substrates of such transporters, we next employed the calcein-AM-assay. This assay is particularly useful for assessing P-glycoprotein (P-gp), a major efflux transporter at the BBB that actively limits drug accumulation in the brain. To investigate potential interactions with P-gp, compounds 10, 11q-s were tested at concentrations of 1 μM, 10 μM, 50 μM and 100 μM, using the calcein-AM-assay in hMEC/D3 cells (Figure ). […] Therefore, these compounds are not expected to be P-gp substrates and may have favorable capacity to cross the BBB via passive diffusion, making them promising candidates for CNS drug development. […].
# For all compounds tested, stock solutions were prepared in DMSO. Dilutions were then made with Krebs-Ringer buffer (KRB). […] Fluorescence was measured using a Tecan Infinite 200 Pro plate reader with λ excitation = 485 nm and λ emission = 535 nm. Each test compound was measured with n = 3, control and background were measured with n = 3. All fluorescence values were corrected by subtracting the background fluorescence. The increase in cellular fluorescence caused by a test compound was referred to the fluorescence of the control. […]
# AChE = AChE (Electrophorus electricus, UniProt O42275); assay: Kinetic analysis (Lineweaver–Burk), AChE; format: biochemical; conditions: Lineweaver–Burk plots, substrate 50–800 μM
# AChE, sequence (O42275 24-633): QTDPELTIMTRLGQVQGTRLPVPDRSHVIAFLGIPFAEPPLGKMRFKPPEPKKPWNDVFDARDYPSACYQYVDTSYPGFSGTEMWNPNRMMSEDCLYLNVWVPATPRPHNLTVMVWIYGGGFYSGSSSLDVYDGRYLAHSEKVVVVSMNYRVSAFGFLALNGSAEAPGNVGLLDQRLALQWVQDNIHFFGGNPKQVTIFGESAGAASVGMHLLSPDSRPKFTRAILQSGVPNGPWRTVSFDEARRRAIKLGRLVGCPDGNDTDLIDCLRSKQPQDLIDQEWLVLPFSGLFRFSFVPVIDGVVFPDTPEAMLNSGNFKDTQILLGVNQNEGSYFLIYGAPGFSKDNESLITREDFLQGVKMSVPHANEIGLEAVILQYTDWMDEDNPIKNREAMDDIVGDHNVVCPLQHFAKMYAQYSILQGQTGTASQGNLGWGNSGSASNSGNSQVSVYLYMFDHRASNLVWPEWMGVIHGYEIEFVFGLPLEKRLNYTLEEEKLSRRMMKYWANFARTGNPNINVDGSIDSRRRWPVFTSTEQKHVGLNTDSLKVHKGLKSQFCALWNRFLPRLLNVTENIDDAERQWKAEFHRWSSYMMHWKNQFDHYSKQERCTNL
# Procedure: (§2) Based on the computational predictions, derivatives 10 (series A) and 11r (series B) were initially expected to interact with both CAS and PAS of AChE and BChE. However, to better understand the actual mechanism of action of these compounds, kinetic studies were performed (Figure ). […].
# (§3) […]. The enzymatic reactions and measurements were performed using the same assay conditions, as described above for the inhibition of both enzymes. All experiments were performed in triplicate. Linear regression analysis was performed with GraphPad Prism 8.0.2 (GraphPad Software Inc.).
# BChE = biological target: T2, BChE (Equus caballus, UniProt P81908); assay: Kinetic analysis (Lineweaver–Burk), BChE; format: biochemical; conditions: Lineweaver–Burk plots, substrate 50–800 μM
# T2 construct: eqBChE (equine serum butyrylcholinesterase); from tissue; host or cells: equine serum
# T2 sequence (P81908 whole entry): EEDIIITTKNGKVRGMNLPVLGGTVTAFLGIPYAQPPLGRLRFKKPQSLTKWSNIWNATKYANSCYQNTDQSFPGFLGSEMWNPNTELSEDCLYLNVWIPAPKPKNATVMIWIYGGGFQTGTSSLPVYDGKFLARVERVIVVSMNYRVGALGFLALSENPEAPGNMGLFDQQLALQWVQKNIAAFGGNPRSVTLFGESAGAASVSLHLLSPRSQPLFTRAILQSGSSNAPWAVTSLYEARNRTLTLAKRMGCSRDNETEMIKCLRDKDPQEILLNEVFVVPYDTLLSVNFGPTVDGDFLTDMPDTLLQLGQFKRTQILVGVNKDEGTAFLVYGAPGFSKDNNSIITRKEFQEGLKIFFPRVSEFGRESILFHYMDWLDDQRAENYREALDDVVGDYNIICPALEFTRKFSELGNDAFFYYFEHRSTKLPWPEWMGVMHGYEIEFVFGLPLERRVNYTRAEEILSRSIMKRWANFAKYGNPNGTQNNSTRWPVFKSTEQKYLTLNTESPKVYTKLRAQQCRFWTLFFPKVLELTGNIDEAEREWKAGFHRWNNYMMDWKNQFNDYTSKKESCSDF
# Procedure: as §2, §3
# [2] = biological target: T3, eqBChE (equine serum butyrylcholinesterase) (Equus caballus, UniProt P81908); assay: Cholinesterase inhibition assay (modified Ellman's method), eqBChE; format: biochemical
# T3 construct: eqBChE (equine serum butyrylcholinesterase); from tissue; host or cells: equine serum
# T3 sequence (P81908 whole entry): as above
# From the text: as §1
# eeAChE (Electrophorus electricus AChE), sequence (O42275 24-633): as the sequence (O42275 24-633) above
Structure (SMILES),IC50 [1],SI eeAChE [1],Prediction (penetration into the CNS) (in vitro),Papp at 2.5 h (in vitro),Interaction with P-gp (intracellular calcein fluorescence) (P-glycoprotein (P-gp)),"Type of inhibition, AChE (AChE)","Type of inhibition, BChE (BChE)",IC50 [2],"IC50 ([1]; mean ± SEM, n = 3, n.a = nonactive, IC50 determined only if inhibition higher than 50% at 20 μM)"
"COc1ccc2c(=O)c3cc4c(cc3oc2c1)-c1cc(Cl)ccc1OC4 [Compound 11r, 2-Chloro-11-methoxy-6H,8H-chromeno[3,4-b]xanthen-8-one]",2.1 ± 0.9 µM,3.00,CNS+ (High BBB permeation predicted (CNS+) P e > 3.93),7.12 ± 0.89 ×10⁻⁶ cm/s,unlikely to be actively effluxed from the brain,reversible competitive inhibition,reversible competitive inhibition,6.3 ± 0.6 µM,–
"C#CCN(CC#C)c1ccccc1/C=C/c1cc(=O)c2ccccc2o1 [Compound 10, (E)-2-{2-[Di(prop-2-yn-1-yl)amino]styryl}-4H-chromen-4-one]",–,0.68,CNS+ (High BBB permeation predicted (CNS+) P e > 3.93),11.6 ± 3.39 ×10⁻⁶ cm/s,clear inhibitory effect on P-gp activity,reversible competitive inhibition,reversible competitive inhibition,5.9 ± 0.4 µM,8.7 ± 0.5 µM
